In the Kinase Knowledgebase extract (Sharma et al. 2016):
Each block holds one compound with its values, some of them ahead of it.

Experiments:
EGFR (murine) [1] = target: EGFR (murine) (UniProt P00533); details: nih3t3
EGFR (human) [2] = target: EGFR (human) (UniProt P00533); details: mkn45, concentration not given here
EGFR (murine) [3] = target: EGFR (murine) (UniProt P00533); details: f/l-herc
EGFR (murine) [4] = target: EGFR (murine) (UniProt P00533); details: f/l-herc; remark: listed apart in the source
EGFR [5] = target: EGFR (UniProt P00533)
Chain of EGFR (P00533 whole entry, looked up): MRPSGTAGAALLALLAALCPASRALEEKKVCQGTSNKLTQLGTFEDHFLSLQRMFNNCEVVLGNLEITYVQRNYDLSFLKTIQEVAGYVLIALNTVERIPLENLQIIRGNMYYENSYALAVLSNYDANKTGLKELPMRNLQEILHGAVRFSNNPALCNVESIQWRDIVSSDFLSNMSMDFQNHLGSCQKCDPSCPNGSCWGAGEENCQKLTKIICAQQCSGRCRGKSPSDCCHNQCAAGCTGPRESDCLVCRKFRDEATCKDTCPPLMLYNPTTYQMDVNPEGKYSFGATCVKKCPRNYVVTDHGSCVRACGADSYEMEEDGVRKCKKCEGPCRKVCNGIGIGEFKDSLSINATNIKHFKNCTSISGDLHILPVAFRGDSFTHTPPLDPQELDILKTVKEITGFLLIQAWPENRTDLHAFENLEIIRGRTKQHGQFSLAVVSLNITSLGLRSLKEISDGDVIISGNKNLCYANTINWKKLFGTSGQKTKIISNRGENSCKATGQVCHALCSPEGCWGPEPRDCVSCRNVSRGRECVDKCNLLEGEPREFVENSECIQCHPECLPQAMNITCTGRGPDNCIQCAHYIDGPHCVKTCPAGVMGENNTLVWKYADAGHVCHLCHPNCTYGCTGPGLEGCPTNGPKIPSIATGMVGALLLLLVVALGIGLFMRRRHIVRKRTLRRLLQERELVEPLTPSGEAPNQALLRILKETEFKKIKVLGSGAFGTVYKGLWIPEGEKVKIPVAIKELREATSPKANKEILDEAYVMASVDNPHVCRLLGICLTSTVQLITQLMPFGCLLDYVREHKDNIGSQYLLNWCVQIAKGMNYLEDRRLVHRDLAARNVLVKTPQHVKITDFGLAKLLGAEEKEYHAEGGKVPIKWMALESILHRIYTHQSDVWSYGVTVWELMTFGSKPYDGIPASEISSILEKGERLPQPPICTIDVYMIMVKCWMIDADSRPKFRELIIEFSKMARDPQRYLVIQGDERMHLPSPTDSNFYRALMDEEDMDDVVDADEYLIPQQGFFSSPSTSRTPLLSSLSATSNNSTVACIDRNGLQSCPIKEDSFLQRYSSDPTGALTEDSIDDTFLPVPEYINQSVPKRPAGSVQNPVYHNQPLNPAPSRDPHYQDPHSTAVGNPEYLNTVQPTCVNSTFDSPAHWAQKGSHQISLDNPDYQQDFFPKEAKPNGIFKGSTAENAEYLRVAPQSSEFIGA

MAPK14 [6] = target: MAPK14 (UniProt Q16539); test: p38 Inhibition
Chain of MAPK14 (Q16539 whole entry, looked up): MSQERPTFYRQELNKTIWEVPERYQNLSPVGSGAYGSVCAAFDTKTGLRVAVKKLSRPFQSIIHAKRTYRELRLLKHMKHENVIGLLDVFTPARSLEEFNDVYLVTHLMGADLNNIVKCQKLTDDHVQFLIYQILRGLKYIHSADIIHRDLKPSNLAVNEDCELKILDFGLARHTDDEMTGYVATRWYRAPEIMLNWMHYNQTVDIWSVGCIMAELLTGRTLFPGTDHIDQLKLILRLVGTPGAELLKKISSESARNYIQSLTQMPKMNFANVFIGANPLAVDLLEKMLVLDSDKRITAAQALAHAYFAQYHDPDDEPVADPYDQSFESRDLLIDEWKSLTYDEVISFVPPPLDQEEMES

MAPK14 [7] = target: MAPK14 (UniProt Q16539); test: In Vitro p38 Inhibition
CDK2 [8] = target: CDK2 (UniProt P24941); test: Enzyme Assay
CDK2 [9] = target: CDK2 (UniProt P24941); test: Enzyme Assay; remark: listed apart in the source
CDK2 [10] = target: CDK2 (UniProt P24941); test: Enzyme Assay; remark: listed apart in the source
CDK2;CDK1 = CDK2;CDK1 (UniProt P24941); test: Cell-Based Assay
EGFR [11] = target: EGFR (UniProt P00533); remark: listed apart in the source
EGFR [12] = target: EGFR (UniProt P00533); remark: listed apart in the source
EGFR [13] = target: EGFR (UniProt P00533); remark: listed apart in the source
EGFR (human) [14] = target: EGFR (human) (UniProt P00533); details: a431
ROCK2 = ROCK2 (UniProt O75116); test: Inhibition of COS cell Derived Rho kinase (ROCKII)
EGFR (human) [15] = target: EGFR (human) (UniProt P00533); details: A431
EGFR (murine) [16] = target: EGFR (murine) (UniProt P00533); details: nih3t3; remark: listed apart in the source
EGFR (mouse) [17] = target: EGFR (mouse) (UniProt P00533); details: swiss 3t3 fibroblast
CDK2 [18] = target: CDK2 (UniProt P24941); test: Enzyme Assay; details: concentration not given here
EGFR [19] = target: EGFR (UniProt P00533); remark: listed apart in the source
EGFR [20] = target: EGFR (UniProt P00533); remark: listed apart in the source
MAPK14 [21] = target: MAPK14 (UniProt Q16539); test: p38 Binding Asssy
EGFR [22] = target: EGFR (UniProt P00533); remark: listed apart in the source
PIK3CA = PIK3CA (UniProt P42336); test: Inhibition of PIK3CA Kinase Activity
Chain of PIK3CA (P42336 whole entry, looked up): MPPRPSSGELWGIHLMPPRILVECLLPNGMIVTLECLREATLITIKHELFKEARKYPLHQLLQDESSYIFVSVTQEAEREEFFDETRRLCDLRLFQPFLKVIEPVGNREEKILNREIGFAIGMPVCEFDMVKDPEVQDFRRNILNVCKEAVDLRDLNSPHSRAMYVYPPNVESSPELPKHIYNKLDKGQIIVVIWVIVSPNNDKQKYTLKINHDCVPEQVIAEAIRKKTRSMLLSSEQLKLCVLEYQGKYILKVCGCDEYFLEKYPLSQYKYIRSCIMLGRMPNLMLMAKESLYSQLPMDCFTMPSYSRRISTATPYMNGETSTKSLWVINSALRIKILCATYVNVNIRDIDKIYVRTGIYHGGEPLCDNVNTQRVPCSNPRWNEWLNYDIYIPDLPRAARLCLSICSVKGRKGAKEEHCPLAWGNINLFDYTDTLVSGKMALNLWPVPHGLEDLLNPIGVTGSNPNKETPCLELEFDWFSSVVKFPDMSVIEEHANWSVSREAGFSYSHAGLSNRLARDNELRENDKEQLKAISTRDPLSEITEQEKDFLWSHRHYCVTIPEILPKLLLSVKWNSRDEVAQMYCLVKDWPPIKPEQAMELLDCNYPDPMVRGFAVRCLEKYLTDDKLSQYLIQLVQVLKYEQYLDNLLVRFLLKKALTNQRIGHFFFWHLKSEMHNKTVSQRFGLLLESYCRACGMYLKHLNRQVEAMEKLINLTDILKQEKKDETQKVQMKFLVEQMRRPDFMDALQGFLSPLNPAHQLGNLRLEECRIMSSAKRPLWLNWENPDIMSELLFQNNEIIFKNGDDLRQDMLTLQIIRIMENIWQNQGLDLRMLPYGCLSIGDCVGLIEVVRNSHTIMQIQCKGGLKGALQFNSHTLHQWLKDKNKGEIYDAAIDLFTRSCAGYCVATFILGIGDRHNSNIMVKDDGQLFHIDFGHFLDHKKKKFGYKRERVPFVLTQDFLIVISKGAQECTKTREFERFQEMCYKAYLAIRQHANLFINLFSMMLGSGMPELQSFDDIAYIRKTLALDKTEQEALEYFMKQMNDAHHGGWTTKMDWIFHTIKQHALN

EGFR (human) [23] = target: EGFR (human) (UniProt P00533); details: a431; remark: listed apart in the source
EGFR (mouse) [24] = target: EGFR (mouse) (UniProt P00533); details: nih3t3/c7
EGFR [25] = target: EGFR (UniProt P00533); remark: listed apart in the source
PIK3CG (human) = PIK3CG (human) (UniProt P48736); test: Inhibition of PIK3CG Kinase Activity by SPA Assay
EGFR [26] = target: EGFR (UniProt P00533); remark: listed apart in the source
EGFR [27] = target: EGFR (UniProt P00533); remark: listed apart in the source
MAP2K1;MAPK14 (human) [28] = target: MAP2K1;MAPK14 (human) (UniProt Q16539); test: Inhibition of LnCAP Cell Proliferation by MTT Assay
Chain of MAP2K1;MAPK14 (human) (Q16539 whole entry, looked up): as the sequence (Q16539 whole entry, looked up) above

MAP2K1;MAPK14 (human) [29] = target: MAP2K1;MAPK14 (human) (UniProt Q16539); test: Inhibition of HT1197 Cell Proliferation by MTT Assay
MAP2K1;MAPK14 (human) [30] = target: MAP2K1;MAPK14 (human) (UniProt Q16539); test: Inhibition of BXPC3 Cell Proliferation by MTT Assay; details: bxpc-3 pancreatic
EGFR (human) [31] = target: EGFR (human) (UniProt P00533); details: a431; remark: listed apart in the source

Chain of EGFR (human) (P00533 whole entry, looked up): as the sequence (P00533 whole entry, looked up) above
Chain of EGFR (murine) (P00533 whole entry, looked up): as above

IC50 (EGFR (murine) [1]): > 100000 nM
Structure (SMILES): CN(C)S(=O)(=O)c1ccc2c(c1)/C(=C/C1=CC3=C(CCCC3)C1)C(=O)N2

Structure (SMILES): Nc1c2c(nc3ccccc13)-c1cccnc1CC2
cell viability (EGFR (human) [2]): > 90%

IC50 (EGFR (murine) [3]): 138 nM | IC50 (EGFR (murine) [4]): > 10000 nM
Structure (SMILES): CN1C2CC[C@]1(Nc1ncc3ncnc(Nc4ccc(F)c(Cl)c4)c3n1)CC(O)C2 (stereo partly drawn)

IC50 (EGFR [5]): 377 nM
Structure (SMILES): Cc1cc(C(=O)N2CCOCC2)[nH]c1/C=C1/C(=O)Nc2ncnc(Nc3cccc4c3CCC4)c21

IC50 (MAPK14 [6]): > 30000 nM | IC50 (MAPK14 [7]): > 30000 nM
Structure (SMILES): O=C(CNS(=O)(=O)c1ccc(CNC(=O)c2ccc(Cl)cc2)s1)NCCNc1ncc(C(F)(F)F)cc1Cl

IC50 (CDK2 [8]): > 250000 nM | IC50 (CDK2 [9]): > 50000 nM | IC50 (CDK2 [10]): > 50000 nM
Structure (SMILES): O=C1c2ccccc2-[n+]2ccc3c([nH]c4ccccc43)c21

Structure (SMILES): Nc1cc(OCC2CCCCC2)nc(N)n1
GI50 (CDK2;CDK1): > 100000 nM

IC50 (EGFR [11]): 12500 nM
Structure (SMILES): C=CC(=O)c1ccc2ccccc2c1

IC50 (EGFR [12]): > 10000 nM
Structure (SMILES): Nc1ccc(-c2cc(Nc3ccc(S(N)(=O)=O)cc3)[nH]n2)cc1

IC50 (EGFR [13]): 4.8 nM | IC50 (EGFR (human) [14]): 9.6 nM
Structure (SMILES): Brc1cccc(Nc2ncnc3cc4[nH]cc(CNN5CCOCC5)c4cc23)c1

IC50 (ROCK2): 48 nM
Structure (SMILES): CC(N)[C@H]1CC[C@H](C(=O)Nc2ccnc3[nH]ccc23)CC1 (stereo partly drawn)

IC50 (EGFR (human) [15]): 9 nM
Structure (SMILES): Cc1nnc(-c2ccc3ncnc(Nc4ccc(OCc5cc(F)cc(F)c5)cc4)c3c2)o1

IC50 (ROCK2): 470 nM
Structure (SMILES): N=C(N)NC[C@H]1CC[C@H](C(=O)NC2=CC=NC3NN=CC23)CC1 (stereo partly drawn)

IC50 (EGFR (murine) [16]): > 100000 nM
Structure (SMILES): N#Cc1ccc(NC(=S)Nc2ccc(S(=O)(=O)N3CCCCC3)cc2)cc1

Structure (SMILES): Nc1c2ccccc2nc2c1ccc1ncccc12
cell viability (EGFR (human) [2]): > 90%

Structure (SMILES): O=C(O)Cc1c(SSc2[nH]c3ccccc3c2CC(=O)O)[nH]c2ccccc12
IC50 (EGFR (mouse) [17]): > 50000 nM

Structure (SMILES): C[S+]([O-])c1ccc(-c2nc(-c3ccc(F)cc3)c(-c3ccncc3)[nH]2)cc1 (stereo not drawn)
activity (CDK2 [18]): 112% | activity (CDK2 [8]; concentration not given here): 91%

IC50 (EGFR [19]): 800 nM
Structure (SMILES): COc1cccc(-c2cn(-c3ccc(CC(=O)NCCO)cc3)c3ncncc23)c1

IC50 (EGFR [20]): > 500000 nM
Structure (SMILES): O=C(c1cccc2[nH]ccc12)N1CCC(Cc2ccccc2)CC1

IC50 (MAPK14 [21]): 46 nM
Structure (SMILES): [N-]=[N+]=Nc1cccc(-c2ncn(CCCNC(=O)c3ccc(I)cc3)c2-c2ccncc2)c1

Structure (SMILES): N#C/C(=C\c1ccc(O)c(O)c1)C(=O)NCCCCc1ccccc1
IC50 (EGFR [22]): 5000 nM

IC50 (PIK3CA): > 50000 nM
Structure (SMILES): COc1ccc(-c2cc(=O)cc(N3CCOCC3)o2)cc1

Ki (EGFR (human) [23]): 0.025 nM
Structure (SMILES): Oc1ccc2ncnc(Nc3cccc(Br)c3)c2c1

IC50 (EGFR (mouse) [24]): > 10000 nM
Structure (SMILES): Cc1nc2cc3nc(-c4ccccc4)[nH]c3cc2nc1C

Ki (EGFR (human) [23]): 0.168 nM
Structure (SMILES): Oc1ccc2c(Nc3cccc(Br)c3)ncnc2c1

IC50 (EGFR [25]): 0.5 nM
Structure (SMILES): Cn1ccc2cc3c(Nc4cccc(Br)c4)ncnc3cc21

IC50 (PIK3CG (human)): < 1000 nM
Structure (SMILES): COc1ccccc1Cn1cnc2ccc(/C=C3\SC(=O)NC3=O)cc21

IC50 (MAPK14 [21]): 640 nM
Structure (SMILES): [N-]=[N+]=Nc1ccc(-c2nc(-c3cccc(I)c3)c(-c3ccncc3)[nH]2)cc1

IC50 (EGFR [26]): 8700 nM
Structure (SMILES): CN1CCN(CCCNc2ncc3cc(-c4c(Cl)cccc4Cl)c(=O)n(C)c3n2)CC1

Structure (SMILES): N#C/C(=C\c1ccc(O)c(O)c1)C(=O)NCCCc1ccccc1
IC50 (EGFR [22]): 700 nM

IC50 (EGFR [27]): 50 nM
Structure (SMILES): Cc1cc(C)c(N2CCN(C)CC2)c(C)c1-c1nc(-c2ccncc2)c(-c2ccc(Cl)cc2)[nH]1

IC50 (EGFR (human) [14]): 77 nM
Structure (SMILES): Brc1cccc(Nc2ncnc3cc4c(ccn4CCCN4CCOCC4)cc23)c1

IC50 (EGFR [13]): 0.006 nM
Structure (SMILES): Brc1cccc(Nc2ncnc3cc4c(cc23)OCCO4)c1

IC50 (MAP2K1;MAPK14 (human) [28]): 40 nM | IC50 (MAP2K1;MAPK14 (human) [29]): 50 nM | IC50 (MAP2K1;MAPK14 (human) [30]): 29 nM
Structure (SMILES): COc1cc2c(Nc3ccc(Sc4nccn4C)c(Cl)c3)c(C#N)cnc2cc1OCCCN1CCOCC1

IC50 (EGFR (human) [31]): 100 nM
Structure (SMILES): N#Cc1cnc2ccc(NC(=O)C#CCN3CCSCC3)cc2c1Nc1cccc(Br)c1
